# Legend:
# [1] = system: IL-2 secretion by human effector memory T cells (TEM); experiment: Effector memory T cells IL-2 release assay; format: cell-based; conditions: T-cell; human CD4+ effector memory T cells, CD3/CD28 bead stimulation, 24 h; read-out: CD4TC IL2 IC50
# Procedure, shortened: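 Human CD4+ effector memory T cells from healthy-donor buffy coats were stimulated with anti-CD3/CD28 Dynabeads and exposed to 10 semi-log compound doses (0.1% DMSO) for 24 h at 37 °C. Supernatant IL-2 was measured by HTRF, and IC50 came from a 4-parameter logistic fit to maximal IL-2. Viability was checked by flow cytometry.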
# [2] = molecular target: Recombinant human MALT-1 (amino acids 340-824) (Homo sapiens (Human), UniProt Q9UDY8); experiment: MALT-1 inhibition assay (fluorogenic substrate Ac-LRSR-Rh110-DP); format: biochemical; conditions: recombinant human MALT-1, substrate Ac-LRSR-Rh110-DP
# Recombinant human MALT-1 (amino acids 340-824), sequence (Q9UDY8 340-824): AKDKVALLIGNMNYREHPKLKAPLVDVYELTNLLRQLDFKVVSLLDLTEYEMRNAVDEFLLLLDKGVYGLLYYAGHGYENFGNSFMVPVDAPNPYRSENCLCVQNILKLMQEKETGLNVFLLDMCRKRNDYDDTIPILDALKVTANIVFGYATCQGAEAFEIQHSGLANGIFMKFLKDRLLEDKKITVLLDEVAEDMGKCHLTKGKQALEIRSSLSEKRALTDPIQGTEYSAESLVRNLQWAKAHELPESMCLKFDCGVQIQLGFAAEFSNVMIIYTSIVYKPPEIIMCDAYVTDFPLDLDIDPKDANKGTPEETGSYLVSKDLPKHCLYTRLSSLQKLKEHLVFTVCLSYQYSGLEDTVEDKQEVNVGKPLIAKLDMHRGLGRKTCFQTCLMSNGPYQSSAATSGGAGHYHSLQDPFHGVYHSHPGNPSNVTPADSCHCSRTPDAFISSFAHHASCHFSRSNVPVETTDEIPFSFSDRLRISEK
# Procedure, shortened: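 MALT-1 at 3 nM final was reacted with 10 μM Ac-LRSR-Rh110-DP, with substrate addition starting the reaction. Incubation ran 60 minutes at 25° C in the dark. Percent inhibition from fluorescence across doses was fitted to a 4-parameter logistic to give IC50.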
IC50 [1],IC50 [2],SMILES
68 nM,59 nM,"CN(C(=O)C1CCS(=O)(=O)CC1)[C@@H](c1ccc(N2CCCc3c2cnc2cc(Cl)nn32)cc1)C(F)(F)F [CPD0019184, N-[(1S)-1-(4-{4-chloro-2,3,7,10-tetraazatricyclo[7.4.0.0^2,6]trideca-1(9),3,5,7-tetraen-10-yl}phenyl)-2,2,2-trifluoroethyl]-N-methyl-1,1-dioxo-1λ^6-thiane-4-carboxamide]"
139 nM,130 nM,"CC(C)C(=O)N(C)[C@@H](c1ccc(N2CCCc3c2cnc2cc(Cl)nn32)cc1)C(F)(F)F [CPD0019340, N-[(1S)-1-(4-{4-chloro-2,3,7,10-tetraazatricyclo[7.4.0.0^2,6]trideca-1(9),3,5,7-tetraen-10-yl}phenyl)-2,2,2-trifluoroethyl]-N,2-dimethylpropanamide]"
104 nM,200 nM,"CN(C(=O)CO)[C@@H](c1ccc(N2CCCc3c2cnc2cc(Cl)nn32)cc1)C(F)(F)F [CPD0019341, N-[(1S)-1-[4-(4-chloro-2,3,7,10-tetrazatricyclo[7.4.0.0^2,6]trideca-1(9),3,5,7-tetraen-10-yl)phenyl]-2,2,2-trifluoro-ethyl]-2-hydroxy-N-methyl-acetamide]"
96 nM,170 nM,"CN(C(=O)CC#N)[C@@H](c1ccc(N2CCCc3c2cnc2cc(Cl)nn32)cc1)C(F)(F)F [CPD0019342, N-[(1S)-1-(4-{4-chloro-2,3,7,10-tetraazatricyclo[7.4.0.0^2,6]trideca-1(9),3,5,7-tetraen-10-yl}phenyl)-2,2,2-trifluoroethyl]-2-cyano-N-methylacetamide]"
295 nM,213 nM,"CN(C(=O)c1cncn1C)[C@@H](c1ccc(N2CCCc3c2cnc2cc(Cl)nn32)cc1)C(F)(F)F [CPD0019344, N-[(1S)-1-(4-{4-chloro-2,3,7,10-tetraazatricyclo[7.4.0.0^2,6]trideca-1(9),3,5,7-tetraen-10-yl}phenyl)-2,2,2-trifluoroethyl]-N,1-dimethyl-1H-imidazole-5-carboxamide]"
720 nM,535 nM,"Cc1ncc(C(=O)N(C)[C@@H](c2ccc(N3CCCc4c3cnc3cc(Cl)nn43)cc2)C(F)(F)F)n1C [CPD0019346, N-[(1S)-1-(4-{4-chloro-2,3,7,10-tetraazatricyclo[7.4.0.0^2,6]trideca-1(9),3,5,7-tetraen-10-yl}phenyl)-2,2,2-trifluoroethyl]-N,1,2-trimethyl-1H-imidazole-5-carboxamide]"
132 nM,244 nM,"Cc1nn(C)cc1C(=O)N(C)[C@@H](c1ccc(N2CCCc3c2cnc2cc(Cl)nn32)cc1)C(F)(F)F [CPD0019347, N-[(1S)-1-(4-{4-chloro-2,3,7,10-tetraazatricyclo[7.4.0.0^2,6]trideca-1(9),3,5,7-tetraen-10-yl}phenyl)-2,2,2-trifluoroethyl]-N,1,3-trimethyl-1H-pyrazole-4-carboxamide]"
157 nM,193 nM,"Cc1ncc(C(=O)N(C)[C@@H](c2ccc(N3CCCc4c3cnc3cc(Cl)nn43)cc2)C(F)(F)F)s1 [CPD0019348, N-[(1S)-1-(4-{4-chloro-2,3,7,10-tetraazatricyclo[7.4.0.0^2,6]trideca-1(9),3,5,7-tetraen-10-yl}phenyl)-2,2,2-trifluoroethyl]-N,2-dimethyl-1,3-thiazole-5-carboxamide]"
83 nM,230 nM,"CC(=O)N(C)[C@@H](c1ccc(N2CCCc3c2cnc2cc(Cl)nn32)cc1)C(F)(F)F [CPD0019349, N-[(1S)-1-(4-{4-chloro-2,3,7,10-tetraazatricyclo[7.4.0.0^2,6]trideca-1(9),3,5,7-tetraen-10-yl}phenyl)-2,2,2-trifluoroethyl]-N-methylacetamide]"
103 nM,70 nM,"CN(C(=O)Cc1ccccc1O)[C@@H](c1ccc(N2CCCc3c2cnc2cc(Cl)nn32)cc1)C(F)(F)F [CPD0019350, N-[(1S)-1-(4-{4-chloro-2,3,7,10-tetraazatricyclo[7.4.0.0^2,6]trideca-1(9),3,5,7-tetraen-10-yl}phenyl)-2,2,2-trifluoroethyl]-2-(2-hydroxyphenyl)-N-methylacetamide]"
152 nM,278 nM,"Cc1ncsc1C(=O)N(C)[C@@H](c1ccc(N2CCCc3c2cnc2cc(Cl)nn32)cc1)C(F)(F)F [CPD0019351, N-[(1S)-1-(4-{4-chloro-2,3,7,10-tetraazatricyclo[7.4.0.0^2,6]trideca-1(9),3,5,7-tetraen-10-yl}phenyl)-2,2,2-trifluoroethyl]-N,4-dimethyl-1,3-thiazole-5-carboxamide]"
417 nM,196 nM,"CN(C(=O)c1nn(C)cc1Cl)[C@@H](c1ccc(N2CCCc3c2cnc2cc(Cl)nn32)cc1)C(F)(F)F [CPD0019352, 4-chloro-N-[(1S)-1-(4-{4-chloro-2,3,7,10-tetraazatricyclo[7.4.0.0^2,6]trideca-1(9),3,5,7-tetraen-10-yl}phenyl)-2,2,2-trifluoroethyl]-N,1-dimethyl-1H-pyrazole-3-carboxamide]"
271 nM,582 nM,"Cc1scnc1C(=O)N(C)[C@@H](c1ccc(N2CCCc3c2cnc2cc(Cl)nn32)cc1)C(F)(F)F [CPD0019353, N-[(1S)-1-(4-{4-chloro-2,3,7,10-tetraazatricyclo[7.4.0.0^2,6]trideca-1(9),3,5,7-tetraen-10-yl}phenyl)-2,2,2-trifluoroethyl]-N,5-dimethyl-1,3-thiazole-4-carboxamide]"
83 nM,164 nM,"CN(C(=O)C1CC1)[C@@H](c1ccc(N2CCCc3c2cnc2cc(Cl)nn32)cc1)C(F)(F)F [CPD0019354, N-[(1S)-1-(4-{4-chloro-2,3,7,10-tetraazatricyclo[7.4.0.0^2,6]trideca-1(9),3,5,7-tetraen-10-yl}phenyl)-2,2,2-trifluoroethyl]-N-methylcyclopropanecarboxamide]"
86 nM,76 nM,CN(C(=O)C1CC[S+]([O-])CC1)[C@@H](c1ccc(N2CCCc3c2cnc2cc(Cl)nn32)cc1)C(F)(F)F (stereo partly shown) [CPD0019481]
146 nM,91 nM,"CN(C(=O)C1CCSCC1)[C@@H](c1ccc(N2CCCc3c2cnc2cc(Cl)nn32)cc1)C(F)(F)F [CPD0019482, N-[(1S)-1-(4-{4-chloro-2,3,7,10-tetraazatricyclo[7.4.0.0^2,6]trideca-1(9),3,5,7-tetraen-10-yl}phenyl)-2,2,2-trifluoroethyl]-N-methylthiane-4-carboxamide]"
59 nM,25 nM,"CN(C(=O)C1CCS(=O)(=O)CC1)[C@@H](c1ccc(N2CC(C)(C)c3c2cnc2cc(Cl)nn32)cc1)C(F)(F)F [CPD0019494, N-[(1S)-1-(4-{11-chloro-3,3-dimethyl-1,5,8,12-tetraazatricyclo[7.3.0.0^2,6]dodeca-2(6),7,9,11-tetraen-5-yl}phenyl)-2,2,2-trifluoroethyl]-N-methyl-1,1-dioxo-1λ^6-thiane-4-carboxamide]"
22 nM,112 nM,"COC(C)c1c(Nc2ccc([C@H](N(C)C(=O)C3CCS(=O)(=O)CC3)C(F)(F)F)cc2)cnc2ccc(Cl)nc12 (stereo partly drawn) [CPD0019496, N-[(1S)-1-(4-{[6-chloro-4-(1-methoxyethyl)-1,5-naphthyridin-3-yl]amino}phenyl)-2,2,2-trifluoroethyl]-N-methyl-1,1-dioxo-1λ^6-thiane-4-carboxamide]"
1250 nM,313 nM,"COc1cc2ncc3c(n2n1)CCCN3c1ccc([C@H](N(C)C(=O)C2CCS(=O)(=O)CC2)C(F)(F)F)cc1 [CPD0019576, N-methyl-1,1-dioxo-N-[(1S)-2,2,2-trifluoro-1-(4-{4-methoxy-2,3,7,10-tetraazatricyclo[7.4.0.0^2,6]trideca-1(9),3,5,7-tetraen-10-yl}phenyl)ethyl]-1λ^6-thiane-4-carboxamide]"
32 nM,38 nM,"CN(C(=O)C1CCS(=O)(=O)CC1)[C@@H](c1ccc(N2CCC(C)(C)c3c2cnc2cc(Cl)nn32)cc1)C(F)(F)F [CPD0019589, N-[(1S)-1-(4-{4-chloro-13,13-dimethyl-2,3,7,10-tetraazatricyclo[7.4.0.0^2,6]trideca-1(9),3,5,7-tetraen-10-yl}phenyl)-2,2,2-trifluoroethyl]-N-methyl-1,1-dioxo-1λ^6-thiane-4-carboxamide]"
900 nM,63 nM,"COc1ccccc1CC(=O)N(C)[C@@H](c1ccc(N2CCCc3c2cnc2cc(Cl)nn32)cc1)C(F)(F)F [CPD0021561, N-[(1S)-1-(4-{4-chloro-2,3,7,10-tetraazatricyclo[7.4.0.0^2,6]trideca-1(9),3,5,7-tetraen-10-yl}phenyl)-2,2,2-trifluoroethyl]-2-(2-methoxyphenyl)-N-methylacetamide]"
103 nM,80 nM,"CN(C(=O)C1CCS(=O)(=O)CC1)[C@@H](c1ccc(N2CCC(C)(C)c3c2cnc2cc(Cl)nn32)nc1)C(F)(F)F [CPD0021562, N-[(1S)-1-(6-{4-chloro-13,13-dimethyl-2,3,7,10-tetraazatricyclo[7.4.0.0^2,6]trideca-1(9),3,5,7-tetraen-10-yl}pyridin-3-yl)-2,2,2-trifluoroethyl]-N-methyl-1,1-dioxo-1λ^6-thiane-4-carboxamide]"

SMILES,IC50 [1],IC50 [2]
"COC(C)c1c(Nc2ccc([C@H](N(C)C(=O)C3CCS(=O)(=O)CC3)C(F)(F)F)cn2)cnc2ccc(Cl)nc12 (stereo partly drawn) [CPD0019499, N-[(1S)-1-(6-{[6-chloro-4-(1-methoxyethyl)-1,5-naphthyridin-3-yl]amino}pyridin-3-yl)-2,2,2-trifluoroethyl]-N-methyl-1,1-dioxo-1λ^6-thiane-4-carboxamide]",190 nM,80 nM

# From patent US20250051327A1, “MALT-1 MODULATORS” (EXSCIENTIA AI LIMITED, priority 2020, published 2025)
